This is an account of results in ChEMBL document CHEMBL2074412, “Cloning of the human kidney PAH transporter: narrow substrate specificity and regulation by protein kinase C” (Am J Physiol, 1999).

Molecules are shown by their SMILES.

Holding throughout (format): functional, cell-based
In data set [1] the target is T1, Solute carrier family 22 member 6 (Homo sapiens, UniProt Q4U2R8).
T1 sequence (Q4U2R8 whole entry): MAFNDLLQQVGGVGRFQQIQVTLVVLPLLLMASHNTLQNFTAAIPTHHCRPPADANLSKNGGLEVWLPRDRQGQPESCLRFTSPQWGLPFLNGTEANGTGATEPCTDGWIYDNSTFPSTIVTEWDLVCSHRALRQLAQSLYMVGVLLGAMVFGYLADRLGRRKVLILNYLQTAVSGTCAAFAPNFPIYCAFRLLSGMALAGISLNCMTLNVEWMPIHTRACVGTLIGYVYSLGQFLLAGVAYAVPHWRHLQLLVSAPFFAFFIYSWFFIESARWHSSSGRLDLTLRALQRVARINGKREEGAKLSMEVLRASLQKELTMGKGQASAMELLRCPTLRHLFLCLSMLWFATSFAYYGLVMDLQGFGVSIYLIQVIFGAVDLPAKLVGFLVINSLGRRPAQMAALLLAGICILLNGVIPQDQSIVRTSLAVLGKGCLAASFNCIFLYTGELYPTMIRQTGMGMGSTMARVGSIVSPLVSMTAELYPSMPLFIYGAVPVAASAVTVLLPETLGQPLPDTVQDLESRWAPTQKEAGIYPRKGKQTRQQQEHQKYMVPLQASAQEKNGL
As to the kind of experiment: TP_TRANSPORTER: inhibition of PAH uptake (Indomethacin: 200 uM) in OAT1-expressing HeLa cells.

The target in data set [2] is T1, Solute carrier family 22 member 6. The experiment in a line: TP_TRANSPORTER: inhibition of PAH uptake (Furosemide: 200 uM) in OAT1-expressing HeLa cells.
Data set [3] shares this target. As to the kind of experiment: TP_TRANSPORTER: inhibition of PAH uptake (PAH: 0.4 uM, Phenylbutazone: 200 uM) in OAT1-expressing HeLa cells.
The target is the same in data set [4]. The experiment in a line: TP_TRANSPORTER: inhibition of PAH uptake (Anandamide: 100 uM) in OAT1-expressing HeLa cells.
Data set [5] shares this target. The experiment in a line: TP_TRANSPORTER: inhibition of PAH uptake (alpha,-KG: 200 uM) in OAT1-expressing HeLa cells.
Data set [6] has the same target. The experiment in a line: TP_TRANSPORTER: uptake in OAT1-expressing HeLa cells.

In the case of `COc1ccc2c(c1)c(CC(=O)O)c(C)n2C(=O)c1ccc(Cl)cc1` [INDOMETHACIN], in data set [1], the Activity entry is “inhibitor [(at a rough estimate) 20 % of control]”.
With `NS(=O)(=O)c1cc(C(=O)O)c(NCc2ccco2)cc1Cl` [FUROSEMIDE], the Activity entry in data set [2] was “inhibitor [(at a rough estimate) 50 % of control]”.
Consider `O=C1OC2(c3ccc(O)cc3Oc3cc(O)ccc32)c2ccccc21` [FLUORESCEIN], for which the Activity entry in data set [3] was “inhibitor [(at a rough estimate) 20 % of control]”.
For the compound `CCCCC/C=C\C/C=C\C/C=C\C/C=C\CCCC(=O)NCCO` [ANANDAMIDE], in data set [4], the Activity result was “is not an inhibitor [-]”.
For `O=C(O)CCC(=O)C(=O)O` [ALPHA-KETOGLUTARIC ACID], the values for the Activity entry in data set [5] and in data set [6] were “inhibitor [(at a rough estimate) 35 % of control]” and “substrate [+]”, respectively.
